Assays:
[1] = molecular target: T1, 5-HT1C receptors (Rattus norvegicus, UniProt P08909); conditions: rats; literature (Kennett and Curzon); cited from earlier work
T1 construct: tissue Charles River; host or cells: whole animal, male Sprague Dawley rats (central receptors, in vivo)
T1 sequence (P08909 33-460): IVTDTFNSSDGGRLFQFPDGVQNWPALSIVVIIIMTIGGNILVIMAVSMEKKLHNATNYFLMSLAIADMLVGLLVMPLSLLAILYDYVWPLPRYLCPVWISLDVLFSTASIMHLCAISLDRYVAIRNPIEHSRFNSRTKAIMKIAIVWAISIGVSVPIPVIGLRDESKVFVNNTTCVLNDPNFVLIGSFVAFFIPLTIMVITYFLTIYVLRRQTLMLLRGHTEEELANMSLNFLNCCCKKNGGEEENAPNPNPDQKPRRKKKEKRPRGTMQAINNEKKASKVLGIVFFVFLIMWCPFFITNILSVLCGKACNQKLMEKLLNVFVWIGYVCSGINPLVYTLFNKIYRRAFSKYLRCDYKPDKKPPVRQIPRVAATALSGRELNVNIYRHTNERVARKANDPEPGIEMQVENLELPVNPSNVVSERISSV

[2] = molecular target: T2, 5-HT1C -like Receptors (Rattus norvegicus, UniProt P30994); experiment: Rat fundic strip, antagonism of 5-HT; conditions: agonist 5-HT, read-out: pA2 (converted)
T2 construct: tissue Charles River; host or cells: stomach fundus strips of male CD rats
T2 sequence (P30994 whole entry): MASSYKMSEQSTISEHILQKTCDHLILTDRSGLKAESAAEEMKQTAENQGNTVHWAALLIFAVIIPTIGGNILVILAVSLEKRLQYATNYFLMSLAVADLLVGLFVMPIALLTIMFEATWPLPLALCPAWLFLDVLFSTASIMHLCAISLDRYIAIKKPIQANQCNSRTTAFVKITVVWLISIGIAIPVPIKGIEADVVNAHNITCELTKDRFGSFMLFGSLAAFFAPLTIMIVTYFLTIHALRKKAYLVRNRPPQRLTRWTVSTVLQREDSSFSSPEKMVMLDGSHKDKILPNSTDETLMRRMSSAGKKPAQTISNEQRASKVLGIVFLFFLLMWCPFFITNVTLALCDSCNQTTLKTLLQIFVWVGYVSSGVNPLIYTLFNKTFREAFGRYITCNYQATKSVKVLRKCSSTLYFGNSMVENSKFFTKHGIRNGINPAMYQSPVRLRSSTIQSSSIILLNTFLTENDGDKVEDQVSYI
Excerpt: The 5-HT receptor in the rat fundic strip (RFS) has been characterised as `5-HT1C -like` as its pharmacology is similar, but not identical, to that of rat 5-HT1C receptor dones.
Whole stomachs were obtained from male CD Rats (Charles River, 250-350 g). Strips of fundus (2 cm×0.5 cm) were cut from the greater curvature and the mucesae carefully removed. Tissues were then further dissected into smaller strips (2 mm×20 mm) which were mounted in organ baths containing oxygensted Tyrodes solution at 37° C. containing indomethacin (3 μM). Preparations were maintained under a resting tension of 0.5 g and exposed to the irreversible MAO inhibitor pargyline (100 μM for 30 minutes followed by washout). Over a 1 h equilibration period, rat fundic strips were challenged with 1×10^-8 M 5-HT at 15 minute intervals until constant responses were obtained. Fifteen minutes later, a complete cumulative concentration-effect curve to the standard agonist 5-HT (1×10^-10 upwards) was constructed to determine the individual sensitivity of each preparation. A further concentration-effect curve to either 5-HT, or other agonists was constructed no sooner than 1 h after completion of the previous curve. When necessary tissues were equilibrated with the antagonists over this one hour period. Antagonists affinities are expressed as pA2 estimates.

[3] = molecular target: T1, 5-HT1C receptors; experiment: Reversal of mCPP-induced hypolocomotion; type: in vivo; conditions: po, p.o. 1 h pretest, mCPP 7 mg/kg i.p., male Sprague Dawley rats, read-out: ID50 (the source's name)
Excerpt: This effect was blocked by the non specific 5-HT1C /5-HT2 receptor antagonists mianserin, cyproheptadine and metergoline and perhaps by mesulergine. It was not blocked by the 5-HT2 receptor antagonists ketanserin and ritanserin at relevant doses (Kennett and Curzon 1991) nor by antagonists of 5-HT1A, 5-HT1B, 5-HT3, α2 adrenoceptors or dompamine D2 receptors. The effect of mCPP is therefore considered to be mediated by 5-HT1C receptors (Kennett and Curzon 1988) as confirmed by subsequent studies (Lucki et al., 1989). Since mCPP causes hypolocomotion when infused into the cerebral ventricles this effect is probably centrally mediated (Kennett and Curzon 1988).
mCPP-induced hypolocomotion was measured in automated locomotion cages of dimensions 56 cm long×161/2× cm wide×25 cm high and made of black perspex. Two photobeams traversed the width of the cages at either end at ground level. Sequential breaking of these beams allowed the measurement of cage transits.
Male Sprague Dawley rats (200-250 g) (Charles River) were housed in groups of six. They were given drugs orally 1 h pretest and 40 mins later mCPP (7 mg/kg i.p.). After a further 20 min they were placed in individual automated cages in groups of four under red light in an adjacent room. After 10 min the test was terminated. […]

[4] = tested on: rat stomach fundus seretonin receptor; conditions: J. Med. Chem. 1986 29 2415-2418; cited from earlier work

Structure (SMILES)	block of mCPP-induced hypolocomotion [1]	other results
CN1CCC(=C2c3ccccc3C=Cc3ccccc32)CC1 [cyproheptadine]	blocked	
Cc1nc2sccn2c(=O)c1CCN1CCC(=C(c2ccc(F)cc2)c2ccc(F)cc2)CC1 [ritanserin]	not blocked	
CN1C[C@@H](NS(=O)(=O)N(C)C)C[C@@H]2c3cccc4c3c(cn4C)C[C@H]21 [mesulergine]	perhaps	
Cc1cc(NC(=O)Nc2ccc3c(ccn3C)c2)sn1 [Example 5, N-(1-Methyl-5-indolyl)-N'-(3-methyl-5-isothiazolyl) urea]		Kb [2]: 12.6 nM
Cn1ccc2cc(NC(=O)Nc3cccnn3)ccc21 [Example 2, N-(1-Methyl-5-indolyl)-N'-(3-pyridazinyl) urea]		ED50 [3]: 47 mg/kg
CN1C[C@H](CNC(=O)OCc2ccccc2)C[C@@H]2c3cccc4c3c(cn4C)C[C@H]21 [metergoline]	blocked	
CCc1c(C)n(C)c2ccc(NC(=O)Nc3cccc(C(F)(F)F)c3)cc12 [N-(1,2-dimethyl-3-ethyl-1H-indol-5-yl)-N'-(3-trifluoromethylphenyl)urea]		selectivity for the rat stomach fundus serotonin receptor [4]: shows selectivity
O=C(c1ccc(F)cc1)C1CCN(CCn2c(=O)[nH]c3ccccc3c2=O)CC1 [ketanserin]	not blocked	
CN1CCN2c3ccccc3Cc3ccccc3C2C1 (stereo not shown) [mianserin]	blocked	
Cn1ccc2cc(NC(=O)Nc3cncnc3)ccc21 [Example 3, N-(1-Methyl-5-indolyl)-N'-(5-pyrimidinyl) urea]		ED50 [3]: 43.7 mg/kg
